Laboratory results: patent US12545685B2 (Daiichi Sankyo Company, Limited, priority 2011, dated 2026)

Tests used:
[1] = human, microsomes, 0.5 h
Method: 100 μl of 100 mM phosphate buffer solution (pH 7.4) containing 3 μM test compound was added to 100 μl of reaction solution containing 100 mM phosphate buffer solution (pH 7.4), 30 mM glucose 6-phosphate, 10 mM MgCl2·6H2O, 3 units/ml glucose 6-phosphate 1-dehydrogenase, and 0.3 to 1.5 mg/ml human liver microsomes and the mixture was incubated at 37° C. for 20 minutes. Then 70 μl of 100 mM phosphate buffer solution (pH 7.4) containing 3 mM NADP+ was added and the mixture was further incubated at 37° C. for 30 minutes to conduct a microsomal metabolism test. The compound was quantified by the internal standard method using a quadrupole mass spectrometer connected to a high performance liquid chromatography apparatus. The metabolic stability (residual percentage of compound: MS %) was determined according to the following formula;
(peak area ratio: peak area of test compound divided by that of internal standard substance)

[2] = tested on: human lung cancer-derived cell line NCI-H460 having wild-type p53; assay: Cell growth inhibition assay (MTT); format: cell-based; conditions: 72 h, NCI-H460 cells, 3 days culture, values given as ranges, read-out: 50% growth inhibition concentration (GI50 value)
Method in brief: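 NCI-H460 cells (wild-type p53) seeded at 500 cells/well in RPMI1640 with 10% FBS, then treated the next day and grown 3 days at 37 °C. MTT read-out at OD 540 nm (660 nm reference), taken at dosing and at day 3. GI50 derived from T/C (%) dose-response curves.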

[3] = target: T1, Mdm2/p53 binding (GST-Mdm2 / His-p53) (Homo sapiens, UniProt Q00987, L33E); assay: Mdm2/p53 binding assay (HTRF, His-p53 and GST-Mdm2); conditions: His-p53 (aa 1-132) and GST-Mdm2 (aa 25-108, L33E) 6.25 nM each; 25°C, 1 hour; values given as ranges
T1 construct: Mdm2 partial protein having Mdm2 amino acids at positions 25 to 108
Method in brief: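 Binding was detected by HTRF (ex 320 nm, em 620/665 nm) after 1 h at 25 °C, using Eu-cryptate anti-GST and XL665 anti-His antibodies. The protein pair was GST-Mdm2 (residues 25–108, L33E) with His-p53 (residues 1–132), each 6.25 nM in the protein dilution. T/C used no-compound control and no-p53 background, and IC50 came from sigmoid fitting.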

T1 sequence (Q00987 25-108 L33E): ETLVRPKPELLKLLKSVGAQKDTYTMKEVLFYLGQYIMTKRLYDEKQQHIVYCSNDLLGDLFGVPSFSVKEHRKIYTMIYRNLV

metabolic stability (residual percentage of compound: MS %) [1]	GI50 [2] [nM]	IC50 [3] [nM]	SMILES
70-100%	–	–	CC1(C)CCC2(CC1)N[C@@H](C(=O)N[C@H]1CC[C@H](c3nnco3)CC1)[C@H](c1cccc(Cl)c1F)[C@]21C(=O)Nc2cc(Cl)ncc21 (relative stereo) [Example 108, (3′R, 4′S, S′R)-6″-chloro-4′-(3-chloro-2-fluorophenyl)-4,4-dimethyl-N-[trans-4-(1,3,4-oxadiazol-2-yl)cyclohexyl]-2″-oxo-1″,2″-dihydrodispiro[cyclohexane-1,2′-pyrrolidine-3′,3″-pyrrolo[3,2-c]pyridine]-5′-carboxamide]
–	< 100	1 to 50	C[C@@H](O)[C@@H]1CC[C@@H](NC(=O)[C@@H]2NC3(CCC(C)(C)CC3)[C@@]3(C(=O)Nc4cc(Cl)ccc43)[C@H]2c2cccc(Cl)c2F)CO1 [Example 182, (3′R, 4′S,5′R)-6″-chloro-4′-(3-chloro-2-fluorophenyl)-N-{(3S,6S)-6-[(1R)-1-hydroxyethyl]tetrahydro-2H-pyran-3-yl}-4,4-dimethyl-2′-oxo-1″,2″-dihydrodispiro[cyclohexane-1,2′-pyrrolidine-3′,3″-indole]-5-carboxamide]
–	100 to 500	50 to 100	CC1(C)CCC2(CC1)N[C@@H](C(=O)N[C@H]1CC[C@H](c3nnco3)CC1)[C@H](c1cccc(Cl)c1F)[C@]21C(=O)Nc2cc(Cl)ccc21 [Example 183, (3′R, 4′S,5′R)-6′-chloro-4′-(3-chloro-2-fluorophenyl)-4,4-dimethyl-N-[trans-4-(1,3,4-oxadiazol-2-yl)cyclohexyl]-2″-oxo-1″,2″-dihydrodispiro[cyclohexane-1,2′-pyrrolidine-3′,3″-indole]-5′-carboxamide]
–	100 to 500	1 to 50	CC1(C)CCC2(CC1)N[C@@H](C(=O)N[C@@H]1CC[C@@H](C(N)=O)OC1)[C@H](c1cccc(Cl)c1F)[C@]21C(=O)Nc2cc(Cl)ncc21 [Example 185, (3′R, 4′S,5′R)—N-[(3R,6S)-6-carbamoyltetrahydro-2H-pyran-3-yl]-6″-chloro-4′-(3-chloro-2-fluorophenyl)-4,4-dimethyl-2″-oxo-1″,2″-dihydrodispiro[cyclohexane-1,2-pyrrolidine-3′,3″-pyrrolo[3,2-c]pyridine]-5′-carboxamide]
–	1000 to 5000	1 to 50	CC1(C)CCC2(CC1)N[C@@H](C(=O)N[C@@H]1CCC(C)(C(=O)O)OC1)[C@H](c1ccnc(Cl)c1F)[C@]21C(=O)Nc2cc(Cl)ccc21 (stereo partly drawn) [Example 186, (5R)-5-({[(3′R, 4′S,5′R)-6″-chloro-4′-(2-chloro-3-fluoropyridin-4-yl)-4,4-dimethyl-2″-oxo-1″,2″-dihydrodispiro[cyclohexane-1,2′-pyrrolidine-3′,3″-indole]-5′-yl]carbonyl}amino)-2-methyltetrahydro-2H-pyran-2-carboxylic acid]
–	100 to 500	1 to 50	CC1(C)CCC2(CC1)N[C@@H](C(=O)NC1(C)CC[C@@H](C(=O)O)OC1)[C@H](c1ccnc(Cl)c1F)[C@]21C(=O)Nc2cc(Cl)ccc21 (stereo partly drawn) [Example 188, (2S)-5-({[(3′R, 4′S,5′R)-6″-chloro-4′-(2-chloro-3-fluoropyridin-4-yl)-4,4-dimethyl-2″-oxo-1″,2″-dihydrodispiro[cyclohexane-1,2′-pyrrolidine-3′,3″-indole]-5′-yl]carbonyl}amino)-5-methyltetrahydro-2H-pyran-2-carboxylic acid]
–	100 to 500	1 to 50	CC1(C)CCC2(CC1)N[C@@H](C(=O)N[C@@H]1CC[C@@H](C(N)=O)OC1)[C@H](c1ccnc(Cl)c1F)[C@]21C(=O)Nc2cc(Cl)ncc21 [Example 191]
